From patent US4550107A, “Condensed diazepinones, their compositions and methods of use as pharmaceuticals” (Dr. Karl Thomae GmbH, priority 1984, dated 1985)
“And” between values parts separate entries of the source, which are not always exact repeats. Equal entries are not always repeated.

Assays:
[1] = target: T1, muscarinic receptors (heart) (Rattus norvegicus, UniProt P10980); assay: Receptor binding tests: inhibition of specific 3H-N-methylscopolamine binding, whole heart; parameters: species or system Sprague-Dawley rats; settings: whole heart homogenate 1:250; 0.3 nM 3H-NMS; 30° C., 45 min, pH 7.4
T1 construct: The whole heart is cut up with scissors; All the organs are then homogenised in a Potter apparatus; from tissue; host or cells: rat whole heart, homogenised (1:250)
T1 sequence (P10980 1-466): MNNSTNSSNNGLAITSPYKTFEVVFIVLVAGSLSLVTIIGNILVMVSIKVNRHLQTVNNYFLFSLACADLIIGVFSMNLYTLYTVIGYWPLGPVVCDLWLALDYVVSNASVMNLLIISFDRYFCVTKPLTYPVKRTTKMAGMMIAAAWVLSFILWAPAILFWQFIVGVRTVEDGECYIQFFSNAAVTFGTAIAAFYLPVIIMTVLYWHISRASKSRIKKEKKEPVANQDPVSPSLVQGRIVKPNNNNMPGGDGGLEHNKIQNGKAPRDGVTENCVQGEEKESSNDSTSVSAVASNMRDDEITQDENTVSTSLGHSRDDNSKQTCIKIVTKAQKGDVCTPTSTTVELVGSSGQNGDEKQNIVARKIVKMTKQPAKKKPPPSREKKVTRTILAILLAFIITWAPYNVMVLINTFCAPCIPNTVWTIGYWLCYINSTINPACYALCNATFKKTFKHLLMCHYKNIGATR
Method: (§1) B. Studies of binding to muscarinic receptors: determining the IC50 value
(§2) The organ donors are Sprague-Dawley rats weighing from 180-220 g. After the removal of the heart, stomach and cerebral cortex, all the other steps are carried out in ice-cold Hepes-HCl buffer (pH 7.4; 100 m molar NaCl, 10 m molar MgCl2). The whole heart is cut up with scissors. All the organs are then homogenised in a Potter apparatus. For the bonding test, the homogenised organs are diluted as follows:
(§3) The homogenised organs are incubated at a specific concentration of the radioligand and with a series of concentrations of the non-radioactive test substances in an Eppendorf centrifugal test tube at 30° C. Incubation lasts 45 minutes. The radioligand is 0.3 n molar ^3 H-N-methylscopolamine (^3 H-NMS). After incubation has been ended by centrifuging at 14,000 g, the radioactivity in the pellet is determined. It represents the sum of specific and non-specific binding of ^3 H-NMS. The proportion of non-specific binding is defined as the radioactivity which binds in the presence of 1 μmolar quinuclidinyl benzylate. Four measurements are made in each case. The IC50 values of the non-labeled test substances are determined graphically. They represent the concentration of test substance at which the specific binding of ^3 H-NMS to the muscarinic receptors in the various organs is inhibited by 50%.

[2] = target: muscarinic receptors (cerebral cortex); assay: Receptor binding tests: inhibition of specific 3H-N-methylscopolamine binding, cerebral cortex; parameters: species or system Sprague-Dawley rats; settings: cerebral cortex homogenate 1:3000; 0.3 nM 3H-NMS; 30° C., 45 min, pH 7.4
Method: as §1, §2, §3

[3] = Stability of separated diastereoisomers (reversion into the original mixture); format: physicochemical; settings: for stability in crystalline form: temperature below the melting point
Excerpt: The base-substituted condensed diazepinones of formula I according to the invention contain up to two independent chiral elements, including an asymmetric carbon atom in the side chain. The second chiral element is the acylated tricyclic moiety itself, which can occur in two mirror-image forms. The nature of the tricyclic compound determines whether the energy barrier for inversion at this center is so high that the individual isomers are stable at ambient temperature and capable of being isolated.
The title compound is prepared analogously to Example 2 from 5-(chloroacetyl)-5,10-dihydro-11H-dibenzo[b,e][1,4]diazepin-11-one and D,L-2-[(4-methyl-1-piperazinyl)methyl]-piperidine to give colorless crystals, mp. 200°-202° C. (acetonitrile/activated charcoal). According to thin layer chromatography (Polygram® SIL G/UV254; eluant: dichloromethane/ethyl acetate/cyclohexane/methanol/conc. ammonia 3.5:1.5:0.46: 0.46:0.06; RF approx. 0.25) it is a mixture of isomers in a quantity ratio of approximately 1:1. Preparative separation is carried out by the following method:
(a) By liquid chromatography (HPLC):
Mobile Phase: Methylene chloride/cyclohexane/methanol/conc. ammonia (200:210:40:0.5 v/v);
In each case, a solution (100 μl) of the diastereoisomer mixture (15.2 mg) is injected into the mobile phase (1 ml) and thus placing the substance (1.5 mg) on the column.
(b) By liquid chromatography on a Jobin-Yvon chromatospac Prep using Li Chroprep Si 60, 25-40 μm (Merck-Darmstadt, Art. 9390) under a pressure of 10 bar.

heart rate = assay: Heart rate increasing activity (tachycardia) in the conscious dog; format: in vivo; settings: Canis lupus familiaris, iv; dose increasing heart rate by 50 beats per minute; conscious dogs; read-out: Tachycardia (dog) ED50
Method: (§4) The methods used have the objective of confirming the selectivity of the antimuscarinic acitivity. Those substances which are selected on the basis of "in vitro" investigations are tested for:
1. tachycardiac effect in conscious dogs;
1. Heart rate increasing activity in the conscious dogs
The substances are injected intravenously and the heart rate is measured with the aid of a tachygraph. After a control period, increasing doses of the compound are administered in order to increase the heart rate. The next dose is injected when the effect of the preceding dose is no longer visible. […] Each substance is tested on 3 to 5 dogs.

gastric acid secretion = assay: Inhibition of gastric acid secretion in pylorus-ligated rats (Shay rat); format: in vivo, male Wistar rats; settings: iv, 2 h, i.v., 5 min before pylorus ligature, volume or acid output reduced by 50%
Method: as §4
2. inhibitory effect on gastric acid secretion in pylorous-ligated rats; and
2. Inhibition of secretion in rats
Increasing doses of the substance are injected intravenously into male Wistar rats (10 rats per group) 5 minutes before the ligature of the pylorus. The rats are killed 2 hours later and both the volume of gastric acid and also the "acid output" are determined by titration. The dosage of substance which reduces either the volume or the acid output by 50% is determined.

IC50 [1] | IC50 [2] | SMILES | further results
18 nM | 100 nM | CCCCN(C)CC1CCCCN1CC(=O)N1c2ccccc2NC(=O)c2ccccc21 (centres unmarked) [Q] | 
170 nM | 1300 nM | CN(C)CCC1CCCCN1CC(=O)N1c2ccccc2C(=O)Nc2cccnc21 (centres unmarked) [E] | 
90 nM | 800 nM | CCN(CC)C[C@@H]1CCCN1CC(=O)N1c2ccccc2NC(=O)c2ccccc21 [I] | 
70 nM | 1100 nM | CN(CC1CCCCN1CC(=O)N1c2ccccc2C(=O)Nc2cccnc21)[C@H]1CC[C@H](O)CC1 (relative stereo) [K] | 
 |  | CN1CCN(CC2CCCCN2CC(=O)N2c3ccccc3NC(=O)c3ccccc32)CC1 (single isomer, unassigned) [Isomer II, 5,10-Dihydro-5-[[2-[(4-methyl-1-piperazinyl)methyl]-1-piperidinyl]-acetyl]-11H-dibenzo[b,e][1,4]diazepin-11-one] | stability in crystalline form [3]: completely stable
150 nM and 100 nM | 750 nM and 1000 nM | CCN(CC)CC1CCCCN1CC(=O)N1c2ccccc2NC(=O)c2ccccc21 (centres unmarked) [F] | 
19 nM | 85 nM | CN(CC1CCCN(CC(=O)N2c3ccccc3C(=O)Nc3cccnc32)C1)C1CCCCC1 (centres unmarked) [L] | 
 |  | CN1CCN(CC2CCCCN2CC(=O)N2c3ccccc3NC(=O)c3ccccc32)CC1 (single isomer, unassigned) [Isomer I, 5,10-Dihydro-5-[[2-[(4-methyl-1-piperazinyl)methyl]-1-piperidinyl]-acetyl]-11H-dibenzo[b,e][1,4]diazepin-11-one] | stability in crystalline form [3]: completely stable; half-life ([3]; hplc mobile phase solution, ambient temperature, mobile phase methylene chloride/cyclohexane/methanol/conc. ammonia, read-out: reverts into the original mixture, t1/2): < 216 h
 |  | CN1C2CCC1CC(OC(=O)C(CO)c1ccccc1)C2 (centres unmarked) [C] | ED (increase of 50 beats per minute) (heart rate): 0.0077 mg/kg
2.8 nM | 20 nM | CN(CC1CCCN(CC(=O)N2c3ccccc3NC(=O)c3ccccc32)C1)C1CCCCC1 (centres unmarked) [O] | 
13 nM | 50 nM | CN(CC1CCCCN1CC(=O)N1c2ccccc2NC(=O)c2ccccc21)C1CCCCC1 (centres unmarked) [N] | 
220 nM | 2200 nM | CCN(CC)CC1CCCCN1CC(=O)N1c2ccccc2NC(=O)c2cscc21 (centres unmarked) [G] | 
400 nM | 4500 nM | CCN(CC)C[C@@H]1CCCN1CC(=O)N1c2ccccc2C(=O)Nc2cccnc21 [H] | 
150 nM and 130 nM | 1500 nM | CN(C)CC1CCCCN1CC(=O)N1c2ccccc2C(=O)Nc2cccnc21 (centres unmarked) [D] | 
35 nM | 100 nM | CCN(CC)CC1CCCN(CC(=O)N2c3ccccc3NC(=O)c3ccccc32)C1 (centres unmarked) [M] | 
 |  | CN1CCN(CC(=O)N2c3ccccc3C(=O)Nc3cccnc32)CC1 [B] | ED (increase of 50 beats per minute) (heart rate): 0.468 mg/kg; ED50 (gastric acid secretion): 0.4 mg/kg
17 nM | 120 nM | CN1CCCC1C1CCCN(CC(=O)N2c3ccccc3NC(=O)c3ccccc32)C1 (centres unmarked) [P] | 

SMILES | IC50 [1] | IC50 [2] | further results
CCN(CC)CC1CCCCN1CC(=O)N1c2ccccc2C(=O)Nc2cccnc21 (racemic) [A] | 140 nM and 150 nM |  | ED (increase of 50 beats per minute) (heart rate): 0.103 mg/kg; ED50 (gastric acid secretion): > 10 mg/kg
